US8962528B2, “Penoxsulam as an herbicide in alfalfa” (Dow AgroSciences, LLC., priority 2011, dated 2015)

Experiments:
alfalfa = settings: in vivo
Method: (§1) A field trial (California) was conducted in field-grown alfalfa using standard herbicide small plot research methodology. Plots were 7.5 ft by 20 ft long with 4 replicates per treatment. The alfalfa crop was already established the previous season and was grown using normal cultural practices for fertilization, seeding, watering, and maintenance to ensure good growth of the crop. All treatments in the field trials were applied using a CO2 backpack sprayer calibrated to apply 187 L/ha spray volume. Commercially available product of penoxsulam was mixed in water at appropriate formulated product rates to achieve the desired rates based on a unit area of application (hectare). Treatments were sprayed as a postemergence application to the soil when alfalfa was in the late dormant stage of growth. “Late dormant” growth stage is defined as when the crop is not actively growing during the winter season and just prior to emerging from dormancy and starting new growth for the growing season. Treatments were rated at 26 to 63 days after the application as compared to the untreated control plants, when the alfalfa crop was no longer dormant. Visual crop injury ratings were scored on a scale of 0 to 100 where 0 corresponds to no injury and 100 corresponds to complete control.

[1] = tested on: CAPBP = Capsella bursa-pastoris, Shepherd's purse; experiment: Field trial of weed control in dormant alfalfa; assay type: in vivo; settings: for Control % Visual CAPBP: 45 DAAA, POST, NOV/JAN
Method: as §1

[2] = tested on: STEME = Stellaria media, chickweed; experiment: Field trial of weed control in dormant alfalfa; assay type: in vivo; settings: for Control % Visual STEME: 45 DAAA, POST, NOV/JAN
Method: as §1

[3] = tested on: POAAN = Poa annua, annual bluegrass; experiment: Field trial of weed control in dormant alfalfa; assay type: in vivo; settings: for Control % Visual POAAN: 45 DAAA, POST, NOV/JAN
Method: as §1

[4] = 35 gr ai/ha + AGRI-DEX COC 2.33 liter/ha
[5] = 70 gr ai/ha + AGRI-DEX COC 2.33 liter/ha
[6] = 140 gr ai/ha + AGRI-DEX COC 2.33 liter/ha
[7] = 45DAAA, all rates, burndown and/or residual activity

SMILES: COc1cnc(OC)n2nc(NS(=O)(=O)c3c(OCC(F)F)cccc3C(F)(F)F)nc12 [PENOXSULAM]
- % Visual Injury of alfalfa compared to the Untreated (alfalfa): some slight visual injury
- alfalfa growth (% Visual Regrowth) as compared to the Untreated (alfalfa): no effect
- alfalfa regrowth as compared to the Untreated (alfalfa): no significant difference
- Control % Visual CAPBP [1, 4]: 100 a % Visual
- Control % Visual CAPBP [1, 5]: 100 a % Visual
- Control % Visual CAPBP [1, 6]: 100 a % Visual
- control of CAPBP (Sheperd's purse) [1, 7]: 100%
- Control % Visual STEME [2, 4]: 100 a % Visual
- Control % Visual STEME [2, 5]: 100 a % Visual
- Control % Visual STEME [2, 6]: 100 a % Visual
- control of STEME (chickweed) [2, 7]: 100%
- Control % Visual POAAN [3, 4]: 65 b % Visual
- Control % Visual POAAN [3, 5]: 79 ab % Visual
- Control % Visual POAAN [3, 6]: 91 a % Visual
- control of grass weed POAAN (annual bluegrass) ([3]; 45DAAA, dependent on the rate applied): significant suppression/partial control
